Assay: Solubility Test with polysorbate 80 in water
Format: physicochemical
Conditions: room temperature and 40° C.
Method: In order to formulate a drug which is hardly soluble in water in an ophthalmic solution, it is necessary to devise to dissolve the drug in water. Since the nonionic surfactant acts as the solubilizing agent, the following solubility tests were performed in order to make sure of its required amount.
Test method: The present compound having a concentration exceeding solubility and polysorbate 80 were added to 10 ml of water, the mixtures were stirred at 5° C., room temperature and 40° C. for 24 hours respectively and then centrifuged at 20,000 rpm, and concentrations of the present compound contained in the supernatants were measured by the HPLC method. […] The “%” in the FIGURE is % by weight.

Structure (SMILES): CC(C)OC(=O)CCC/C=C\C[C@@H]1[C@@H](/C=C/C(F)(F)COc2ccccc2)[C@H](O)C[C@@H]1O [the present compound, 16-Phenoxy-15-deoxy-15,15-difluoro-17,18,19,20-tetranorprostaglandin F2α isopropyl ester]
- Water-solubility of the present compound versus temperature (5° C., with polysorbate 80 (FIG. 1)): at low temperatures is higher than that at high temperatures
- solubility of the present compound versus amount of polysorbate 80 (water, stirred 24 hours at 5° C., supernatant by HPLC (FIG. 1)): increases depending on amounts of polysorbate 80
